Assay results: patent US9066922B2, “Pharmaceutical composition for the treatment or prevention of diseases involving obesity, diabetes, metabolic syndrome, neuro-degenerative diseases and mitochondria dysfunction diseases” (MD BIOALPHA CO., LTD., priority 2005, dated 2015)

Tests used:
AMPK = assay: Determination of AMPK activation in C2C12 myoblast cells (SAMS peptide, [γ-32P]ATP); format: cell-based; conditions: differentiated C2C12 myoblast cells, 5 μg/ml, compared with control (DMSO 0.5% = 1)
Method: Myoblast cells, C2C12, were cultured in DMEM containing 10% bovine calf serum. When a cell density reached a range of about 85% to 90%, the culture medium was replaced with a medium containing 1% bovine calf serum to induce differentiation of cells. The thus-differentiated myoblast cells were treated with samples synthesized in Examples 1 through 29 at a concentration of 5 μg/ml, and compared with a control group. Enzymatic activity of AMPK was determined as follows. Firstly, C2C12 cells were lysed to obtain protein extracts and then ammonium sulfate was added to a final concentration of 30%, thereby precipitating proteins. Protein precipitates were dissolved in a buffer (62.5 mM Hepes, pH 7.2, 62.5 mM NaCl, 62.5 mM NaF, 1.25 mM Na pyrophosphate, 1.25 mM EDTA, 1 mM DTT, 0.1 mM PMSF, and 200 μM AMP). Thereafter, 200 μM SAMS peptide (HMRSAMSGLHLVKRR: the underlined serine residue is a phosphorylation site, as an AMPK phosphorylation site of acetyl-CoA carboxylase) and [γ-32P]ATP were added thereto and reactants were reacted for 10 minutes at 30° C. This was followed by spotting of the resulting reaction solution on p81 phosphocellulose paper. The p81 paper was washed with a 3% phosphoric acid solution and radioactivity thereof was measured. For each reaction condition, reactions involving no SAMS peptide were also conducted and basic values were subtracted from the thus-observed values.

Sprague-Dawley rats [1] = assay: Acute toxicity test, oral administration; format: in vivo; conditions: oral, 50, 100 and 200 mg/kg, observed for 2 weeks, vs control group
[2] = test system: C57BL/6JL Lep ob/Lep ob mice; assay: Weight loss effects in obese mice (ob/ob): body weight; format: in vivo; conditions: 100 mg/kg for 26 days; for change in vivo at 100 mg/kg: Mus musculus, 624 h, read-out: Increase in BW
Source text: (§1) 10-week-old C57BL/6JL Lep ob/Lep ob male mice having obesity characteristics and predisposition were purchased from Daehan Biolink Co., Ltd. (Chungchongbuk-do, Korea). Animals were raised in a breeding room maintained at a temperature of 23 C, 55% humidity, illumination of 300 to 500 lux, a 12-h light/dark (L/D) cycle, and ventilation of 10 to 18 times/hr. Animals were fed ad libitum pellets of Purina Rodent Laboratory Chow 5001 (purchased from Purina Mills Inc., St. Louis, Mo., USA) as a solid feed for experimental animals and tap water as drinking water. Mice were allowed to acclimate to new environment of the breeding room for two weeks and were then administered some pyrano-o-naphthoquinone and furano-o-naphthoquinone derivatives synthesized according to the present invention at doses of 100 mg/kg for 26 days. Observation was made on changes in body weight, blood glucose and dietary intake, with respect to a time course of administration. After administration was complete, Computed Tomography (CT) was performed to confirm changes in adipose tissue distribution of animals, changes in fat distribution of tissues in various organs, changes in sizes of adipocytes, and changes in glucose, lipid and enzyme levels in blood and liver.

Sprague-Dawley rats [3] = assay: Acute toxicity test, peritoneal administration; format: in vivo; conditions: peritoneal, 50, 100 and 200 mg/kg, observed for 2 weeks, vs control group
[4] = test system: C57BL/6JL Lep ob/Lep ob mice; assay: Blood lipid, glucose and enzyme levels in obese mice (ob/ob); format: in vivo; design: unit not given here; conditions: 100 mg/kg for 26 days
Source text: as §1

Row | Compound | AMPK fold (AMPK) | visually observable symptoms (Sprague-Dawley rats [1]) | Final BW [2] | change in vivo at 100 mg/kg [2] | visually observable symptoms (Sprague-Dawley rats [3]) | Cholesterol [4] | GOT [4] | GPT [4] | Glucose [4] | Triglyceride [4]
1 | CC1OC2=C(C(=O)C(=O)c3ccccc32)C1(C)C (centres unmarked) [Compound 2, Dunnione] | 1.4 fold | no visually observable symptoms with exception of weight loss | 28.7 g | -46.2% | no visually observable symptoms with exception of weight loss | 123 | 50 | 43 | 125 | 154
2 | CC1C2=C(OC1(C)C)c1ccccc1C(=O)C2=O (centres unmarked) [Compound 3] | 3.2 fold | no visually observable symptoms with exception of weight loss | 39.7 g | -27.9% | no visually observable symptoms with exception of weight loss | 128 | 36 | 32 | 122 | 129
3 | CC1(C)CC2=C(O1)c1ccccc1C(=O)C2=O [Compound 4] | 2.2 fold | no visually observable symptoms with exception of weight loss | 40.0 g | -27.8% | no visually observable symptoms with exception of weight loss | 130 | 48 | 44 | 134 | 148
4 | CC1CC2=C(O1)c1ccccc1C(=O)C2=O (centres unmarked) [Compound 5] | 1.3 fold |  | 36.1 g | -39.5% |  | 117 | 38 | 29 | 112 | 137
5 | O=C1C(=O)c2ccccc2C2=C1CCO2 [Compound 6] | 2.2 fold |  |  |  |  |  |  |  |  | 
6 | O=C1C(=O)c2ccccc2C2=C1CCC(c1ccccc1)O2 (centres unmarked) [Compound 7] | 2.2 fold |  |  |  |  |  |  |  |  | 
7 | CC1OC2=C(C(=O)C(=O)c3ccccc32)C1c1ccccc1 (centres unmarked) [Compound 8] | 1.9 fold |  |  |  |  |  |  |  |  | 
8 | C=C1OC2=C(C(=O)C(=O)c3ccccc32)C1(C)C [Compound 9] | 2.6 fold |  |  |  |  |  |  |  |  | 
9 | COC1(C)OC2=C(C(=O)C(=O)c3ccccc32)C1(C)C (centres unmarked) [Compound 10] | 1.6 fold |  |  |  |  |  |  |  |  | 
10 | CC1(C)C=CC2=C(O1)c1ccccc1C(=O)C2=O [Compound 11] | 1.3 fold |  |  |  |  |  |  |  |  | 
11 | C=CC1(C)CCC2=C(O1)c1ccccc1C(=O)C2=O (centres unmarked) [Compound 12] | 2.1 fold | no visually observable symptoms with exception of weight loss |  |  | no visually observable symptoms with exception of weight loss |  |  |  |  | 
12 | CC(C)=CC1(C)CCC2=C(O1)c1ccccc1C(=O)C2=O (centres unmarked) [Compound 13] | 2.3 fold | no visually observable symptoms with exception of weight loss |  |  | no visually observable symptoms with exception of weight loss |  |  |  |  | 
13 | CC(C)=C/C(C)=C/C1(C)CCC2=C(O1)c1ccccc1C(=O)C2=O (centres unmarked) [Compound 14] | 1.5 fold | no visually observable symptoms with exception of weight loss | 61.3 g | -4.7% | no visually observable symptoms with exception of weight loss | 160 | 95 | 87 | 193 | 216
14 | C[C@H]1OC2=C(C(=O)C(=O)c3ccccc32)[C@@H]1C [Compound 16] | 2.5 fold | no visually observable symptoms with exception of weight loss |  |  | no visually observable symptoms with exception of weight loss |  |  |  |  | 
15 | C[C@@H]1C2=C(O[C@@H]1C)c1ccccc1C(=O)C2=O [Compound 17] | 2.2 fold | no visually observable symptoms with exception of weight loss |  |  | no visually observable symptoms with exception of weight loss |  |  |  |  | 
16 | CC1CCC2=C(O1)c1ccccc1C(=O)C2=O (centres unmarked) [Compound 18] | 2.3 fold |  |  |  |  |  |  |  |  | 
17 | CCC1CC2=C(O1)c1ccccc1C(=O)C2=O (centres unmarked) [Compound 19] | 2.1 fold |  |  |  |  |  |  |  |  | 
18 | CC1(C)CCCC2(C)OC3=C(CC12)C(=O)C(=O)c1ccccc13 (centres unmarked) [Compound 20] | 2.3 fold |  |  |  |  |  |  |  |  | 
19 | CC1(C)CCC2=C(O1)c1cc(Cl)ccc1C(=O)C2=O [Compound 21] | 2.2 fold |  | 41.1 g | -28.3% |  | 127 | 46 | 39 | 127 | 138
20 | Cc1ccc2c(c1)C1=C(CCC(C)(C)O1)C(=O)C2=O [Compound 22] | 1.9 fold |  | 48.7 g | -16.5% |  | 132 | 57 | 49 | 142 | 168
21 | CCC1(C)CCC2=C(O1)c1ccccc1C(=O)C2=O (centres unmarked) [Compound 24] | 2.1 fold | no visually observable symptoms with exception of weight loss |  |  | no visually observable symptoms with exception of weight loss |  |  |  |  | 
22 | CCC1(CC)CCC2=C(O1)c1ccccc1C(=O)C2=O [Compound 25] | 1.8 fold | no visually observable symptoms with exception of weight loss |  |  | no visually observable symptoms with exception of weight loss |  |  |  |  | 
23 | CC1(c2ccccc2)CCC2=C(O1)c1ccccc1C(=O)C2=O (centres unmarked) [Compound 26] | 2.2 fold | no visually observable symptoms with exception of weight loss | 42.3 g | -25.5% | no visually observable symptoms with exception of weight loss | 128 | 40 | 33 | 131 | 137
24 | O=C1C(=O)c2ccccc2C2=C1CCC1(CCCCC1)O2 [Compound 27] | 1.7 fold |  |  |  |  |  |  |  |  | 
25 | O=C1C(=O)c2ccccc2C2=C1CCC1(CCCC1)O2 [Compound 28] | 1.7 fold |  |  |  |  |  |  |  |  | 
26 | Cc1cc2c(o1)-c1ccccc1C(=O)C2=O [Compound 29] | 1.3 fold |  |  |  |  |  |  |  |  | 
27 | Cc1coc2c1C(=O)C(=O)c1ccccc1-2 [Compound 30] | 1.2 fold |  |  |  |  |  |  |  |  | 
28 | Cc1ccc2c(c1)C(=O)C(=O)c1c(C)coc1-2 [Compound 31] | 1.2 fold |  |  |  |  |  |  |  |  | 
29 | Cc1ccc2c(c1)-c1occ(C)c1C(=O)C2=O [Compound 32] | 1.3 fold |  |  |  |  |  |  |  |  | 
